This test deals with primary CLL samples (CD19+ and CD5+ cells). In words: High-throughput dynamic BH3 profiling (HT-DBP): drug-induced apoptotic priming (delta priming), cytochrome c release after BH3 peptide. It counts as cell-based, human. Conditions: for drug-induced apoptotic priming: across CLL subtypes, 65 primary CLL samples, 20 hours drug. As to the method: By “delta priming” is meant the difference in priming of a cell for apoptosis measured in the presence of an agent for treating chronic lymphocytic leukemia relative to priming of the cell in the presence of an inert carrier. In embodiments, the inert carrier is DMSO.
Dynamic BH3 Profiling Dynamic BH3 profiling (DBP) is a drug screening assay that measures the relative priming of cells in a biological sample for cell death by apoptosis in the presence of a specific compound and/or a pro-apoptotic peptide. By “Dynamic BH3 profiling” is meant measuring drug-induced changes in mitochondrial apoptotic priming. Mitochondrial apoptotic priming is a measure of how close to the apoptotic threshold a cell is. A highly primed cell has relatively less anti-apoptotic binding site availability and is closer to the apoptotic threshold than a poorly primed cell, which has more anti-apoptotic availability to buffer an apoptotic assault and is further from the apoptotic threshold. BH3 peptides derived from the BH3 domain of pro-apoptotic BH3-only proteins provoke a response from viable mitochondria. Cytochrome c released from the mitochondria after a short incubation with BH3 peptide is used as a surrogate for priming. In general, the more sensitive a mitochondrion is to a BH3 peptide, the more primed it is. A drug treatment that enhances priming will cause mitochondria to undergo MOMP more easily when incubated with a fixed concentration of a promiscuously binding BH3 peptide, such as BIM BH3 peptide, compared to control-treated cells. See, for example, Potter, D. S. & Letai, A. To prime, or not to prime: that is the question. Cold Spring Harb. Symp. Quant. Biol. 81, 131-140 (2016); Montero, J. et al. Drug-induced death signaling strategy rapidly predicts cancer response to chemotherapy. Cell 160, 977-989 (2015); Daniels, V. W. et al. Metabolic perturbations sensitize triple-negative breast cancers to apoptosis induced by BH3 mimetics. Sci.
Dynamic BH3 profiling and peptides for use therein are described, for example, in Certo, et al., “Mitochondria primed by death signals determine cellular addiction to antiapoptotic BCL-2 family members,” Cancer Cell, 9:351-365 (2006); and in Foight, et al. “Designed BH3 Peptides with High Affinity and Specificity for Targeting Mcl-1 in Cells,” ACS Chemical Biology, 9:1962-1968 (2014), the disclosures of which are incorporated herein by reference in their entireties for all purposes. The DBP assay enables one to compare the response of a patient tumor sample to a specific drug relative to other drugs and relative to an inert control (e.g., DMSO).
To address the challenge of selecting a proper treatment for a chronic lymphocytic leukemia, experiments were undertaken to optimize high-throughput dynamic BH3 profiling (HT-DBP) for evaluation of the drug sensitivities of CLL samples (FIGS. 1, 13, 5A, 5B, 6A, 6B, and 7A-7C).

The mark [1] stands for this setting: peptide PUMA 1 uM, feature EC-i.
Setting [2] is: peptide BAD 0.3 uM, feature BIRC3.
Setting [3] is: peptide BAD 0.3 uM, feature EC-m2.
Where [4] appears, read: peptide BAD 0.3 uM, feature FBXW7.
Where [5] appears, read: peptide BAD 0.3 uM, feature ITIH2.
The mark [6] stands for this setting: peptide BAD 0.3 uM, feature MYD88.
The mark [7] stands for this setting: peptide BAD 0.3 uM, feature gain_19p13.3.
[8] abbreviates: peptide BAD 0.3 uM, feature i-CLL.
Setting [9] is: peptide BAD 0.3 uM, feature loss_3p21.31.
[10] abbreviates: peptide BAD 0.3 uM, feature loss_5p15.33.
Where [11] appears, read: peptide BAD 0.3 uM, feature loss_7q36.1.
The mark [12] stands for this setting: peptide BAD 0.3 uM, feature loss_8p.
[13] abbreviates: peptide BAD 0.3 uM, feature loss_12p13.31a.
Where [14] appears, read: peptide BAD 0.3 uM, feature loss_14q32.12.
The mark [15] stands for this setting: peptide BAD 0.3 uM, feature loss_17p13.1.
Where [16] appears, read: peptide BAD 0.3 uM, feature loss_17p13.3.
Setting [17] is: peptide BAD 0.3 uM, feature loss_17q11.2.
[18] abbreviates: peptide BIM 0.01 uM, feature EC-i.
[19] abbreviates: peptide BIM 0.01 uM, feature loss_1p36.11.
Where [20] appears, read: peptide BIM 0.01 uM, feature loss_3p13.
Where [21] appears, read: peptide BIM 0.01 uM, feature loss_10q24.32.
Where [22] appears, read: peptide BIM 0.01 uM, feature loss_18q21.2.
[23] abbreviates: peptide BIM 0.01 uM, feature priortrt_Post.
Where [24] appears, read: peptide MS1 2.5 uM, feature EC-m4.

Consider `CCn1c(-c2nonc2N)nc2c(C#CC(C)(C)O)ncc(OC[C@H]3CCCNC3)c21` [GSK690693], for which the direction result is, setting by setting: (Feature i-CLL) “Sensitive”; (peptide BAD 0.3 uM, feature EC-o) “Sensitive”; (peptide BAD 0.3 uM, feature POT1) “Resistant”; (peptide BAD 0.3 uM, feature loss_3p13) “Resistant”; (peptide BIM 0.01 uM, feature i-CLL) “Sensitive”; (peptide MS1 2.5 uM, feature EC-m3) “Resistant”. For the same molecule, the direction entry is recorded as “Sensitive” (peptide MS1 2.5 uM, feature EC-o); “Sensitive” (peptide MS1 2.5 uM, feature i-CLL); “Sensitive” (peptide MS1 2.5 uM, feature loss_13q14.13); “Sensitive” (peptide PUMA 1 uM, feature BIRC3); “Sensitive” (peptide PUMA 1 uM, feature ITIH2); “Sensitive” (peptide PUMA 1 uM, feature i-CLL). For the same molecule, the direction result runs as follows: (peptide PUMA 1 uM, feature loss_9p21.3) “Sensitive”; (peptide PUMA 1 uM, feature loss_17q11.2) “Sensitive”.
For the molecule `Cc1cc(Nc2cc(CN3CCOCC3)c3nc(C)c(Cc4ccc(Cl)cc4F)n3n2)n[nH]1` [Gandotinib], the drug-induced apoptotic priming result is on record as “high priming”. In addition, the “drug-induced apoptotic priming by expression cluster” value (EC-ul (U-CLL)) is “most sensitive”. In addition, the direction result (Feature EC-i) was “Resistant”. Further, where the note is “peptide BAD 0.3 uM, feature EC-i”, the direction result is reported as “Resistant”. Moreover, for the setting “peptide BAD 0.3 uM, feature GNB1”, the direction entry was “Sensitive”. The direction entry under setting [1] is “Resistant”. Moreover, the direction entry (peptide PUMA 1 uM, feature GNB1) was “Sensitive”.
`CC[C@H](Nc1ncnc2nc[nH]c12)c1nc2cccc(F)c2c(=O)n1-c1ccccc1` [Idelalisib, idelalisib]: the drug-induced apoptotic priming entry is listed as “high priming”. Besides, the direction entry (peptide MS1 2.5 uM, feature tri_12) is reported as “Sensitive”. Besides, for the setting “peptide PUMA 1 uM, feature DICER1”, the direction result is “Resistant”. Moreover, for the setting “peptide PUMA 1 uM, feature EC-m4”, the direction entry is “Sensitive”. Further, under “peptide PUMA 1 uM, feature KMT2D”, the direction entry is “Sensitive”. For the same molecule, where the note is “peptide PUMA 1 uM, feature MED1”, the direction result was “Resistant”.
As to `Cc1sc2c(c1C)C(c1ccc(Cl)cc1)=N[C@@H](CC(=O)OC(C)(C)C)c1nnc(C)n1-2` [JQ1], the direction entry is recorded as “Sensitive” (Feature EC-i); “Sensitive” (Feature FBXW7); “Sensitive” under setting [2]; “Sensitive” under setting [3]; “Sensitive” under setting [4]; “Sensitive” under setting [5]. Besides, the direction result is, setting by setting: under setting [6], “Resistant”; under setting [7], “Sensitive”; under setting [8], “Sensitive”; under setting [9], “Resistant”; under setting [10], “Resistant”; under setting [11], “Resistant”. The direction result under setting [12] is recorded as “Resistant”; the direction result under setting [13] is given as “Resistant”; the direction result under setting [14] is “Resistant”; the direction result under setting [15] was “Sensitive”; the direction result under setting [16] was “Resistant”; the direction entry under setting [17] was “Sensitive”. Further, the direction result reads like this: under setting [18], “Sensitive”; under setting [19], “Sensitive”; under setting [20], “Sensitive”; under setting [21], “Sensitive”; under setting [22], “Sensitive”; under setting [23], “Sensitive”. Further, the direction result under setting [24] was “Sensitive”; the direction result (peptide PUMA 1 uM, feature ATM) is “Resistant”; the direction result under setting [1] is “Resistant”; the direction result (peptide PUMA 1 uM, feature MYD88) is on record as “Resistant”; the direction entry (peptide PUMA 1 uM, feature gain_16p11.2) was “Resistant”; the direction result (peptide PUMA 1 uM, feature loss_1p36.11) is “Sensitive”. Further, the direction result is “Resistant” (peptide PUMA 1 uM, feature loss_1q21.3); “Resistant” (peptide PUMA 1 uM, feature loss_2q31.1); “Sensitive” (peptide PUMA 1 uM, feature loss_3p13); “Resistant” (peptide PUMA 1 uM, feature loss_3p21.31); “Resistant” (peptide PUMA 1 uM, feature loss_5p15.33); “Resistant” (peptide PUMA 1 uM, feature loss_7p22.2). Besides, the direction result was “Resistant” (peptide PUMA 1 uM, feature loss_7q36.1); “Resistant” (peptide PUMA 1 uM, feature loss_8p); “Resistant” (peptide PUMA 1 uM, feature loss_10p12.2); “Sensitive” (peptide PUMA 1 uM, feature loss_10q24.32); “Resistant” (peptide PUMA 1 uM, feature loss_12p13.31a); “Resistant” (peptide PUMA 1 uM, feature loss_14q32.12). The direction entry runs as follows: (peptide PUMA 1 uM, feature loss_16q22.1) “Resistant”; (peptide PUMA 1 uM, feature loss_17p13.3) “Resistant”; (peptide PUMA 1 uM, feature loss_18q21.2) “Sensitive”. The dprim_pearson_corr runs as follows: under setting [2], 0.6355; under setting [3], 0.3877; under setting [4], 0.5086; under setting [5], 0.6355; under setting [6], −0.3438; under setting [7], 0.359. In addition, the dprim_pearson_corr reads like this: under setting [8], 0.3327; under setting [9], −0.3438; under setting [10], −0.3996; under setting [11], −0.3438; under setting [12], −0.3438; under setting [13], −0.3996. Moreover, the dprim_pearson_corr under setting [14] is −0.3438; the dprim_pearson_corr under setting [15] turned out to be 0.507; the dprim_pearson_corr under setting [16] is listed as −0.3996; the dprim_pearson_corr under setting [17] is 0.6355; the dprim_pearson_corr under setting [18] is on record as 0.3826; the dprim_pearson_corr under setting [19] is 0.4365. The dprim_pearson_corr reads like this: under setting [20], 0.3364; under setting [21], 0.4365; under setting [22], 0.4365; under setting [23], 0.3609; under setting [24], 0.3901.
As for `Nc1cccc2c1CN(C1CCC(=O)NC1=O)C2=O` (stereo not drawn) [Lenalidomide], the direction result is on record as “Resistant” (peptide BAD 0.3 uM, feature loss_10q24.32); “Resistant” (peptide BIM 0.01 uM, feature loss_15q15.1b); “Resistant” (peptide BIM 0.01 uM, feature loss_20p11.22); “Sensitive” (peptide MS1 2.5 uM, feature CNOT3).

For the origin of these results see patent US20250255889A1, “METHODS FOR TREATMENT SELECTION FOR CHRONIC LYMPHOCYTIC LEUKEMIA (CLL)” (The Broad Institute, Inc., priority 2022, published 2025).
